The numbers were not newly measured in patent US6455070B1, “Composition for treating symptoms of influenza” (East Park Research, Inc., priority 2001, dated 2002), which cites them from elsewhere.

The subject of this data set is wide variety of viruses. Particulars: greatest activity under alkaline conditions (pH 7.5).

Regarding `COC(=O)C1=CO[C@@H](C)[C@@H](C=O)[C@@H]1CC(=O)[O-].COC(=O)C1=CO[C@@H](C)[C@@H](C=O)[C@@H]1CC(=O)[O-].[Ca+2]` [calcium elenolate], the “in vitro antiviral activity” value was “activity against a wide variety of viruses”.
